Earlier results, collected in paper PMC5589077 (ACS chemical neuroscience, 2015).

How the values were obtained:
α6β2*- and α4β2*-nAChRs = conditions: via activation of α6β2*- and α4β2*-nAChRs; cited from earlier work
[1] = pretreatment with nonreinforcing doses, without affecting motor function; cited from earlier work
α4α6β2-nAChRs = conditions: cited from earlier work

Cc1ncccc1OC[C@@H]1CCCN1 [ABT-089, 2-Methyl-3-[(2S)-pyrrolidin-2-yl]methoxypyridine]
effect on in vitro striatal DA release (α6β2*- and α4β2*-nAChRs): increases in vitro striatal DA release

O=c1cccc2n1CC1CC2CN(CCN2CC3CC(C2)c2cccc(=O)n2C3)C1 [CC4, 1,2-bis-N-Cystinylethane]
effect on nicotine-induced self-administration and CPP [1]: significantly reduced

CN1CCC[C@H]1c1cccnc1 [Nicotine, nicotine]
partial agonist activity at α4α6β2-nAChRs (α4α6β2-nAChRs): 70%
